Data on 2 molecules can be found in patent US8304002B2, “Fenugreek extract for treating human and animal diseases involving flagellate parasites” (Setubio S.A.S., priority 2008, dated 2012).

Series [1] deals with MRC5 cells. As to the kind of experiment: Cytotoxicity test (protein assay, SRB) on MRC5 cells. Conditions: MRC5, 100 μg/mL to 2 mg/mL, 24 h and 48 h. The format is cell-based, human. The procedure: The MRC5 cells (primary human foetal lung fibroblasts) were cultured in 25 or 75 cm^2 dishes in supplemented MEM (Minimum Essential Medium, Life Technologies Gibco), in a chamber at 37° C. and % CO2. 500 mL of MEM was supplemented with foetal calf serum (10% final), glutamine 2 mM (5 mL), antibiotics (5 mL penicillin/streptomycin i.e. […], 0.5 mL ampicillin i.e. 10 μg/ml, 0.25 mL gentamicin i.e. 25 μg/mL) and fungicides (5 mL fungizone i.e. 2.5 μg/mL). When the cells reached confluence, they were trypsinised and transferred into 96-well plates at […]. They were then incubated at 37° C., 5% CO2 for 24 h before starting the test. The plates were duplicated for a protein assay after 24 and 48 h. This test consists of culturing the cells in the presence of extracts, then precipitating total proteins to determine their concentration. The MRC5 cells were put into contact with 200 μL of supplemented MEM containing different concentrations of the extracts to be tested. […] Each dilution was tested in triplicate to produce a mean. Two controls were used: • a negative control: cells in the supplemented MEM only • a positive control: cells in the presence of a mixture of the supplemented MEM and 50% DMSO The plates were then incubated at 37° C., 5% CO2 for 24 or 48 h. […] The contents of the wells were homogenised and the optical density read at 490 nm. […]

The test system of series [2] is Histomonas meleagridis. As to the kind of experiment: Anti-Histomonas activity: in vitro culture with parasite counts. The format is cell-based. The procedure: The strain of H. meleagridis was isolated from the caeca of turkeys experimentally infested with eggs of the H. gallinarum worm. The parasites were cultured at 39° C. in sealed glass tubes containing 3 mL of supplemented M199 medium. They were transferred twice a week. To do this, 80 μL of preculture were added to 3 mL of fresh medium previously heated in a water bath to 39° C. Counting was performed in a Malassez counting chamber after staining with 0.4% trypan blue. The 100 fields of the chamber were counted. […] was tested at different concentrations. A parasite count was performed three times after 72 h incubation. A negative control was included by replacing the extract with the solvent only (sterile water). To study the dose-dependent effect, each test was performed in triplicate, with different concentrations, counting the parasites at 24 h, 48 h and 72 h. A negative control was included by replacing the extract with the solvent only.

The test system of series [3] is bacterial flora associated with H. meleagridis. As to the kind of experiment: Effect on the bacterial flora associated with H. meleagridis. As to conditions: 48 h of culture, FIG. 4. The series is classed as cell-based. Here is the method: An aliquot of H. meleagridis culture was taken. Four serial dilutions (10^-4 to 10^-7) were made in liquid tryptone soya medium. 20 μL of each dilution was spread onto tryptone soya agar medium. Incubation at 37° C. overnight. The effects of different concentrations of […] and of DMZ on the associated bacterial flora after 48 h of culture were then compared. The results are expressed in number of bacteria per mL (FIG. 4). The extract […] was histomonicidal from 1 mg/mL. It had no effect on the associated bacterial flora. Dimetridazole is histomonicidal from 25 μg/mL at 72 h. On the other hand it is bactericidal from 400 μg/mL.

In series [4] the test system is Histomonas meleagridis. As to the kind of experiment: Regrowth of H. meleagridis after transfer into fresh medium following 72 h treatment. The series is classed as cell-based. Here is the method:
After 72 h of treatment with […] and DMZ, the parasites were put into fresh medium for 96 h to analyse the histomonicidal effect (FIG. 5).

[5] abbreviates: 25 μg/mL for 72 h, then fresh medium 96 h.

With `O=C(N/N=C/c1ccc([N+](=O)[O-])o1)c1cc([N+](=O)[O-])cc([N+](=O)[O-])c1O` [Nifursol], the “cytotoxicity for human cells in culture” value in series [1] was “not toxic”. Besides, the inhibition at 2000 µg/mL in series [2] (Histomonas meleagridis, 2 mg/mL, at 72 h, read-out: inhibition of proliferation of H. meleagridis) worked out at 38%. Moreover, in series [2] (at 2 mg/mL), the “effect on the proliferation of H. meleagridis” value is recorded as “slightly histomonostatic”.
In the case of `Cc1ncc([N+](=O)[O-])n1C` [DMZ, dimetridazole], the “concentration from which bactericidal” value in series [3] is no less than 400 µg/mL. Besides, the “effect on growth of H. meleagridis (in words)” value in series [2] (FIG. 3, tested in parallel S520/DMZ) is “parasitostatic”. Also, in series [2] (at 72 h), the “concentration from which histomonicidal” value is no less than 25 µg/mL. In addition, the “concentration at which parasiticidal” value in series [2] (growth of H. meleagridis, FIG. 3) is 25 µg/mL. Further, the “regrowth of the culture” value in series [4] (12.5 μg/mL for 72 h, then fresh medium 96 h) is on record as “regrowth”; in series [4] (setting [5]), “regrowth”; in series [4] (400 μg/mL for 72 h, then fresh medium 96 h) it was “No regrowth”; in series [4] (1 mg/mL for 72 h, then fresh medium 96 h), “No regrowth”. Also, the “growth relative to the control after transfer” value in series [4] (setting [5]) is recorded as “about 30%”. Further, the “concentration from which histomonicidal (confirmed by regrowth)” value in series [4] (72 h treatment, then fresh medium 96 h) was no less than 400 µg/mL. Further, the “histomonicidal or histomonostatic (confirmed by regrowth)” value in series [4] (at 25 μg/mL) is recorded as “histomonostatic”.
